Measurements published in US20210085711A1 (Japan Tobacco Inc., priority 2017, published 2021).
Like-named read-outs stand apart in the source and are kept apart here.

Experiments:
[1] = test system: patients with hypermenorrhea and/or patients with hypermenorrhea-associated gynecologic diseases (iron-deficiency anemia patients)
Procedure: (§1) This test was a three-stage safety and efficacy clinical trial at multi-facilities. The first stage was a pre-observation period (Day −40 to Day −1), the second stage was an administration period (Day 1 to Day 48) (efficacy and safety evaluation period), and the third stage was a post-observation period (Day 49 to Day 63) (efficacy and safety evaluation period). The safety evaluation and efficacy evaluation were performed by multi-facility collaboration, placebo control, random allocation, double-blind trial, and parallel group comparison test.
(§2) The administration period of the trial drug is seven weeks which starts from the next day of the Week 0 visit to the day before the Week 7 visit, provided that the trial drug is not taken on the scheduled Week 3 visit.
(§3) The blood hemoglobin value (Hb), the serum iron level, the serum ferritin value, the total iron-binding capacity (TIBC) and the transferrin saturation rate (TSAT), and the mean corpuscular volume (MCV) were each examined at the observation start date, Week 0, Week 3, Week 7, the end of administration and the consultation at nine weeks after Week 0; the hepcidin concentration (Hepcidin 25) and the serum soluble transferrin receptor concentration (sTfR) were each examined on Week 0, Week 3 and Week 7 and at the end of administration; and the C-terminal FGF23 value (cFGF23) and the intact FGF23 value (iFGF23) were each examined on Week 0 and Week 7 and at the end of administration.

[2] = test system: patients with hypermenorrhea and/or patients with hypermenorrhea-associated gynecologic diseases (iron-deficiency anemia patients); test: Phase II clinical trial of JTT-751: mean corpuscular volume value (MCV); type: in vivo, human
Procedure: as §1
(§4) (1) Japanese patients who are 20 or more and less than 65 years old at the time of agreement and can visit an outpatient clinic (2) Patients who have an Hb value (measured using HemoCue® Hb 201 DM analyzer in the institute of clinical practice) of 7.0 g/dL or more and less than 11.0 g/dL on both the observation start date and Week 0, and the difference between the two days is 1.0 g/dL or less (3) Patients with a TIBC of 360 μg/dL or more or a serum ferritin value of less than 12 ng/mL on the observation start date
as §2
(§5) (2) Subsidiary evaluation items 1) Erythrocyte-related examination values and amount of change from Week 0 at each observation date 2) Iron-related test values and amount of change from Week 0 at each observation date 3) Achievement rate of target Hb value (female; 12.0 g/dL or more, male; 13.0 g/dL or more) at each observation date 4) Achievement rate of 1.0 g/dL or more and achievement rate of 2.0 g/dL or more in Hb value improvement from Week 0 at each observation date 5) Average daily change of Hb value from Week 0 to each observation date
as §3

[3] = test system: patients with hypermenorrhea and/or patients with hypermenorrhea-associated gynecologic diseases (iron-deficiency anemia patients); test: Phase II clinical trial of JTT-751: hepcidin concentration (Hepcidin 25); type: in vivo, human
Procedure: as §1, §4, §2, §5, §3

[4] = 250 mg/day, 9 weeks after Week 0
[5] = 250 mg/day, End of administration
[6] = 500 mg/day, 9 weeks after Week 0
[7] = 500 mg/day, End of administration
[8] = 1000 mg/day, 9 weeks after Week 0
[9] = 1000 mg/day, End of administration
[10] = 1500 mg/day, 9 weeks after Week 0
[11] = 1500 mg/day, End of administration
[12] = 9 weeks after Week 0, JTT-751 250 mg group
[13] = 9 weeks after Week 0, JTT-751 500 mg group
[14] = 9 weeks after Week 0, JTT-751 1000 mg group
[15] = 9 weeks after Week 0, JTT-751 1500 mg group
[16] = Administration start date, JTT-751 250 mg group
[17] = Administration start date, JTT-751 500 mg group
[18] = Administration start date, JTT-751 1000 mg group
[19] = Administration start date, JTT-751 1500 mg group
[20] = End of administration, JTT-751 250 mg group
[21] = End of administration, JTT-751 500 mg group
[22] = End of administration, JTT-751 1000 mg group
[23] = End of administration, JTT-751 1500 mg group
[24] = Week 0 (baseline), JTT-751 250 mg group
[25] = Week 0 (baseline), JTT-751 500 mg group
[26] = Week 0 (baseline), JTT-751 1000 mg group
[27] = Week 0 (baseline), JTT-751 1500 mg group

Ferric citrate [JTT-751]
TSAT, profile from the baseline (value at Week 0), Mean [1, 4]: 4.29%
TSAT, profile from the baseline (value at Week 0), Median [1, 4]: 3.85%
TSAT, profile from the baseline (value at Week 0), Mean [1, 5]: 9.12%
TSAT, profile from the baseline (value at Week 0), Median [1, 5]: 7.60%
TSAT, profile from the baseline (value at Week 0), Mean ([1]; 250 mg/day, Week 3): 5.26%
TSAT, profile from the baseline (value at Week 0), Median ([1]; 250 mg/day, Week 3): 4.85%
TSAT, profile from the baseline (value at Week 0), Mean ([1]; 250 mg/day, Week 7): 9.12%
TSAT, profile from the baseline (value at Week 0), Median ([1]; 250 mg/day, Week 7): 7.60%
TSAT, profile from the baseline (value at Week 0), Mean [1, 6]: 7.27%
TSAT, profile from the baseline (value at Week 0), Median [1, 6]: 5.90%
TSAT, profile from the baseline (value at Week 0), Mean [1, 7]: 12.27%
TSAT, profile from the baseline (value at Week 0), Median [1, 7]: 12.35%
TSAT, profile from the baseline (value at Week 0), Mean ([1]; 500 mg/day, Week 3): 8.57%
TSAT, profile from the baseline (value at Week 0), Median ([1]; 500 mg/day, Week 3): 3.60%
TSAT, profile from the baseline (value at Week 0), Mean ([1]; 500 mg/day, Week 7): 12.27%
TSAT, profile from the baseline (value at Week 0), Median ([1]; 500 mg/day, Week 7): 12.35%
TSAT, profile from the baseline (value at Week 0), Mean [1, 8]: 12.42%
TSAT, profile from the baseline (value at Week 0), Median [1, 8]: 12.60%
TSAT, profile from the baseline (value at Week 0), Mean [1, 9]: 15.46%
TSAT, profile from the baseline (value at Week 0), Median [1, 9]: 16.20%
TSAT, profile from the baseline (value at Week 0), Mean ([1]; 1000 mg/day, Week 3): 15.56%
TSAT, profile from the baseline (value at Week 0), Median ([1]; 1000 mg/day, Week 3): 9.90%
TSAT, profile from the baseline (value at Week 0), Mean ([1]; 1000 mg/day, Week 7): 15.46%
TSAT, profile from the baseline (value at Week 0), Median ([1]; 1000 mg/day, Week 7): 16.20%
TSAT, profile from the baseline (value at Week 0), Mean [1, 10]: 11.41%
TSAT, profile from the baseline (value at Week 0), Median [1, 10]: 9.95%
TSAT, profile from the baseline (value at Week 0), Mean [1, 11]: 16.70%
TSAT, profile from the baseline (value at Week 0), Median [1, 11]: 16.00%
TSAT, profile from the baseline (value at Week 0), Mean ([1]; 1500 mg/day, Week 3): 15.59%
TSAT, profile from the baseline (value at Week 0), Median ([1]; 1500 mg/day, Week 3): 7.90%
TSAT, profile from the baseline (value at Week 0), Mean ([1]; 1500 mg/day, Week 7): 16.70%
TSAT, profile from the baseline (value at Week 0), Median ([1]; 1500 mg/day, Week 7): 16.00%
MCV, Mean [2, 12]: 78.9 fL
MCV, Median [2, 12]: 79.0 fL
MCV, Mean [2, 13]: 80.8 fL
MCV, Median [2, 13]: 81.0 fL
MCV, Mean [2, 14]: 83.9 fL
MCV, Median [2, 14]: 84.0 fL
MCV, Mean [2, 15]: 82.4 fL
MCV, Median [2, 15]: 82.5 fL
MCV, Mean [2, 16]: 71.5 fL
MCV, Median [2, 16]: 73.0 fL
MCV, Mean [2, 17]: 71.9 fL
MCV, Median [2, 17]: 72.0 fL
MCV, Mean [2, 18]: 72.5 fL
MCV, Median [2, 18]: 71.0 fL
MCV, Mean [2, 19]: 71.0 fL
MCV, Median [2, 19]: 69.0 fL
MCV, Mean [2, 20]: 78.4 fL
MCV, Median [2, 20]: 79.5 fL
MCV, Mean [2, 21]: 79.8 fL
MCV, Median [2, 21]: 81.0 fL
MCV, Mean [2, 22]: 82.5 fL
MCV, Median [2, 22]: 82.0 fL
MCV, Mean [2, 23]: 81.4 fL
MCV, Median [2, 23]: 81.0 fL
MCV, Mean [2, 24]: 70.8 fL
MCV, Median [2, 24]: 72.0 fL
MCV, Mean [2, 25]: 70.9 fL
MCV, Median [2, 25]: 70.5 fL
MCV, Mean [2, 26]: 72.4 fL
MCV, Median [2, 26]: 70.0 fL
MCV, Mean [2, 27]: 70.6 fL
MCV, Median [2, 27]: 68.0 fL
mean corpuscular volume value (MCV), time-dependent change ([2]; Week 0, Week 3 and Week 7): increased along with the continuous administration
MCV, Mean ([2]; Week 3, JTT-751 250 mg group): 73.9 fL
MCV, Median ([2]; Week 3, JTT-751 250 mg group): 74.0 fL
MCV, Mean ([2]; Week 3, JTT-751 500 mg group): 75.3 fL
MCV, Median ([2]; Week 3, JTT-751 500 mg group): 75.0 fL
MCV, Mean ([2]; Week 3, JTT-751 1000 mg group): 78.3 fL
MCV, Median ([2]; Week 3, JTT-751 1000 mg group): 77.0 fL
MCV, Mean ([2]; Week 3, JTT-751 1500 mg group): 76.7 fL
MCV, Median ([2]; Week 3, JTT-751 1500 mg group): 77.0 fL
MCV, Mean ([2]; Week 7, JTT-751 250 mg group): 78.4 fL
MCV, Median ([2]; Week 7, JTT-751 250 mg group): 79.5 fL
MCV, Mean ([2]; Week 7, JTT-751 500 mg group): 79.8 fL
MCV, Median ([2]; Week 7, JTT-751 500 mg group): 81.0 fL
MCV, Mean ([2]; Week 7, JTT-751 1000 mg group): 82.5 fL
MCV, Median ([2]; Week 7, JTT-751 1000 mg group): 82.0 fL
MCV, Mean ([2]; Week 7, JTT-751 1500 mg group): 81.4 fL
MCV, Median ([2]; Week 7, JTT-751 1500 mg group): 81.0 fL
mean corpuscular volume value (MCV) at the end of administration ([2]; end of administration): a value around the normal value
Hepcidin-25, Mean [3, 20]: 2.196 pg/mL
Hepcidin-25, Median [3, 20]: 1.520 pg/mL
Hepcidin-25, Mean [3, 21]: 4.818 pg/mL
Hepcidin-25, Median [3, 21]: 3.925 pg/mL
Hepcidin-25, Mean [3, 22]: 11.465 pg/mL
Hepcidin-25, Median [3, 22]: 9.680 pg/mL
Hepcidin-25, Mean [3, 23]: 11.674 pg/mL
Hepcidin-25, Median [3, 23]: 8.440 pg/mL
Hepcidin-25, Mean [3, 24]: 0.726 pg/mL
Hepcidin-25, Median [3, 24]: 0.715 pg/mL
Hepcidin-25, Mean [3, 25]: 0.593 pg/mL
Hepcidin-25, Median [3, 25]: 0.290 pg/mL
Hepcidin-25, Mean [3, 26]: 0.509 pg/mL
Hepcidin-25, Median [3, 26]: 0.410 pg/mL
Hepcidin-25, Mean [3, 27]: 0.631 pg/mL
Hepcidin-25, Median [3, 27]: 0.600 pg/mL
Hepcidin 25 concentration, time-dependent change ([3]; Week 0, Week 3 and Week 7): increased along with the continuous administration
Hepcidin-25, Mean ([3]; Week 3, JTT-751 250 mg group): 1.289 pg/mL
Hepcidin-25, Median ([3]; Week 3, JTT-751 250 mg group): 0.695 pg/mL
Hepcidin-25, Mean ([3]; Week 3, JTT-751 500 mg group): 1.839 pg/mL
Hepcidin-25, Median ([3]; Week 3, JTT-751 500 mg group): 0.895 pg/mL
Hepcidin-25, Mean ([3]; Week 3, JTT-751 1000 mg group): 8.623 pg/mL
Hepcidin-25, Median ([3]; Week 3, JTT-751 1000 mg group): 8.430 pg/mL
Hepcidin-25, Mean ([3]; Week 3, JTT-751 1500 mg group): 7.813 pg/mL
Hepcidin-25, Median ([3]; Week 3, JTT-751 1500 mg group): 5.940 pg/mL
Hepcidin-25, Mean ([3]; Week 7, JTT-751 250 mg group): 2.196 pg/mL
Hepcidin-25, Median ([3]; Week 7, JTT-751 250 mg group): 1.520 pg/mL
Hepcidin-25, Mean ([3]; Week 7, JTT-751 500 mg group): 4.818 pg/mL
Hepcidin-25, Median ([3]; Week 7, JTT-751 500 mg group): 3.925 pg/mL
Hepcidin-25, Mean ([3]; Week 7, JTT-751 1000 mg group): 11.465 pg/mL
Hepcidin-25, Median ([3]; Week 7, JTT-751 1000 mg group): 9.680 pg/mL
Hepcidin-25, Mean ([3]; Week 7, JTT-751 1500 mg group): 11.674 pg/mL
Hepcidin-25, Median ([3]; Week 7, JTT-751 1500 mg group): 8.440 pg/mL
